Numbers after ± are expanded uncertainties.
Settings: for mass density: 298.15 K, 101.33 kPa, Liquid

| SMILES | mass density [kg/m3] | Normal melting temperature (Crystal, visual observation) [°C] |
| --- | --- | --- |
| CC(C)CC(C)(C)C [2,2,4-trimethylpentane] | 687.757 ± 0.84 | – |
| CCCCCCC [heptane] | 679.627 ± 0.85 | – |
| CCCCCCCCC [nonane] | 714.064 ± 1.3 | – |
| CCCCCCCCCC [decane] | 726.357 ± 1.2 | – |
| CCCCCCCC [octane] | 698.636 ± 1.3 | – |
| O=C1CCCCCN1 [1-aza-2-cycloheptanone] | – | 69.06 ± 0.39 |

From the NIST ThermoML archive (doi:10.1021/je900785z)
